Where two headings read alike, the source gives them in different places.
How the values were obtained:
[1] = molecular target: T1, PKC-β1 (Homo sapiens, UniProt P05771); test: PKC isoform translocation in A549-tGFP cells; format: cell-based; set-up: host or cells: A549; conditions: 60 minutes
Experimental: (§1) Using these findings we embarked on new designs for DAG-lactones with additional substituents from the ester moiety in combination with a few olefin substituents. A description of this effort is reported elsewhere.
(§2) Cellular translocation of PKC isoforms upon activation was determined in 8 A549 cell lines, each expressing a single PKC isoform fused to tGFP (PhenoVista Biosciences). Cells were plated in 384-well plates (80 μL/well) at 10^5 cells/mL in RPMI with 10% FBS and rested overnight. PKC agonist(s) were serially diluted at 1:3 steps in DMSO and added to the cells. After 60 minutes in an incubator at 37 °C, 5% CO2, cells were stained with Hoechst-33342 and fixed with 2% paraformaldehyde for 30 minutes at 4 °C. Cells were then stained with wheat germ agglutinin conjugated to AlexaFluor647 (WGA-647) for 10 minutes at 4 °C, washed to remove excess dye and imaged with Cellomics Array Scan (Thermo Fisher) at room temperature (RT). Images were analyzed using Cellomics automated image analysis algorithm. Plasma membrane translocation was quantified using the ratio between the average fluorescence in the areas at the cell edge defined by WGA-647 and the cytoplasm region.

[2] = molecular target: PKC-γ (Homo sapiens, UniProt P05129); test: PKC isoform translocation in A549-tGFP cells; format: cell-based; set-up: host or cells: A549; conditions: 60 minutes
Experimental: as §1, §2

[3] = molecular target: T2, PKC-β2 (Homo sapiens, UniProt P05771); test: PKC isoform translocation in A549-tGFP cells; format: cell-based; set-up: host or cells: A549; conditions: 60 minutes
T2 sequence (P05771 1-673 isoform P05771-2): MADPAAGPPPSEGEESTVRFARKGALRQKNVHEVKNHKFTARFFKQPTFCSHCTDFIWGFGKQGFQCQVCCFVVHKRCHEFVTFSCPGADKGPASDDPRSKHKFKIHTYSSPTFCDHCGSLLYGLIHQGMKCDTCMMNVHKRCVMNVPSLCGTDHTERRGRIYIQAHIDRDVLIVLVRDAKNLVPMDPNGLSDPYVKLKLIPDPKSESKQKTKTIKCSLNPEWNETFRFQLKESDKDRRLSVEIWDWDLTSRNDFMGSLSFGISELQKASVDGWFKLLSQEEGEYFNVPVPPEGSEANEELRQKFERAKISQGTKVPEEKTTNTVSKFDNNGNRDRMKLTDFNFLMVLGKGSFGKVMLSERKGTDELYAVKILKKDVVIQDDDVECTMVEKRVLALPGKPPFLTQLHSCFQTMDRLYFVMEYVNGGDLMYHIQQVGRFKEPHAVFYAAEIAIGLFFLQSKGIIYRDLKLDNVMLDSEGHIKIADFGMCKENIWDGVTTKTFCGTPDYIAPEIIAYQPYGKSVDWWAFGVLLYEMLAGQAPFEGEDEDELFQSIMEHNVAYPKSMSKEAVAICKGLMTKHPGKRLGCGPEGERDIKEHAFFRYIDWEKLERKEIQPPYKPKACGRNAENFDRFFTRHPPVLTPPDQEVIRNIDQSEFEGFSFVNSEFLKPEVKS
Experimental: as §1, §2

[4] = molecular target: T3, PKC-ε (Homo sapiens, UniProt Q02156); test: PKC isoform translocation in A549-tGFP cells; format: cell-based; set-up: host or cells: A549; conditions: A549-tGFP cells, 60 minutes
T3 sequence (Q02156 1-737): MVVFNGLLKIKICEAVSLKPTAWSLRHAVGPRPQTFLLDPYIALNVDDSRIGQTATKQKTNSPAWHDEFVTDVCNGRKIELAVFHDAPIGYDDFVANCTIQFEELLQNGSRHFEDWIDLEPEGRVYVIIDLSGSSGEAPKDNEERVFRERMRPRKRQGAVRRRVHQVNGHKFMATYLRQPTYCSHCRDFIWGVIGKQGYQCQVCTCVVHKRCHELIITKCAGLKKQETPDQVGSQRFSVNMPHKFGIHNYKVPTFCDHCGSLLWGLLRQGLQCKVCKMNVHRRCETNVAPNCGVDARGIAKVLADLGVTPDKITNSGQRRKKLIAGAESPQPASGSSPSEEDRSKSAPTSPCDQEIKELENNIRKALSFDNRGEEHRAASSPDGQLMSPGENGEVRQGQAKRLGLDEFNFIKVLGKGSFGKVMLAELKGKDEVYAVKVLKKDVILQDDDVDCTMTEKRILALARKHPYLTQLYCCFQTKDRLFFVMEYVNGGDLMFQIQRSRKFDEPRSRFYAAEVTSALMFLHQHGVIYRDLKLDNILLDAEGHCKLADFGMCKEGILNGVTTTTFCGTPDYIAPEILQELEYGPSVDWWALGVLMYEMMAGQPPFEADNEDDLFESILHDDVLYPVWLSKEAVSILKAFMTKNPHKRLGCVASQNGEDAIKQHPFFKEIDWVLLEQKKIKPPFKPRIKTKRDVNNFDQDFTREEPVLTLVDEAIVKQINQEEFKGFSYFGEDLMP
Experimental: as §1, §2

[5] = molecular target: T4, PKC-α (Homo sapiens, UniProt P17252); test: PKC isoform translocation in A549-tGFP cells; format: cell-based; set-up: host or cells: A549
Experimental: (§3) A description of this effort is reported elsewhere.
as §2

[6] = molecular target: PKC-η (Homo sapiens, UniProt P24723); test: PKC isoform translocation in A549-tGFP cells; format: cell-based; set-up: host or cells: A549; conditions: A549-tGFP cells, 60 minutes
Chain of PKC-η (P24723 whole entry, canonical isoform): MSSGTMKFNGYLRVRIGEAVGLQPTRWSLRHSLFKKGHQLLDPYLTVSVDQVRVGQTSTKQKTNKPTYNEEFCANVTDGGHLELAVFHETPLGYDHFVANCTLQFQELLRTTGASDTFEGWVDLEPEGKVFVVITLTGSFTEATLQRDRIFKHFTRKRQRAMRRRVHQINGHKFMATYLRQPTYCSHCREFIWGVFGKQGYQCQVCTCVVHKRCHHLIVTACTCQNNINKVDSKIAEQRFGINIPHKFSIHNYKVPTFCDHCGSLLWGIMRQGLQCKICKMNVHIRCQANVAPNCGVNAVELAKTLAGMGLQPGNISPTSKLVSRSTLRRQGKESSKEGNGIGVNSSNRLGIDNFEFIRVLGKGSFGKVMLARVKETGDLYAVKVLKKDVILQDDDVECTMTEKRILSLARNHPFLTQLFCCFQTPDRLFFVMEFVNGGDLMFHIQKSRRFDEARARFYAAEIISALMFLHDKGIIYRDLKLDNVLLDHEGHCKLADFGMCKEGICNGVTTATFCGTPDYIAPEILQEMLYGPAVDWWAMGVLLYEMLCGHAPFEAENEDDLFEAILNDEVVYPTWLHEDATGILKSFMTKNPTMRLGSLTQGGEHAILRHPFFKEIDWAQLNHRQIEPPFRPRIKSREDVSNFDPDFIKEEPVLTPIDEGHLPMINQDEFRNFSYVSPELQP
Experimental: as §3, §2

[7] = molecular target: PKC-θ (Homo sapiens, UniProt Q04759); test: PKC isoform translocation in A549-tGFP cells; format: cell-based; set-up: host or cells: A549; conditions: A549-tGFP cells, 60 minutes
Chain of PKC-θ (Q04759 whole entry, canonical isoform): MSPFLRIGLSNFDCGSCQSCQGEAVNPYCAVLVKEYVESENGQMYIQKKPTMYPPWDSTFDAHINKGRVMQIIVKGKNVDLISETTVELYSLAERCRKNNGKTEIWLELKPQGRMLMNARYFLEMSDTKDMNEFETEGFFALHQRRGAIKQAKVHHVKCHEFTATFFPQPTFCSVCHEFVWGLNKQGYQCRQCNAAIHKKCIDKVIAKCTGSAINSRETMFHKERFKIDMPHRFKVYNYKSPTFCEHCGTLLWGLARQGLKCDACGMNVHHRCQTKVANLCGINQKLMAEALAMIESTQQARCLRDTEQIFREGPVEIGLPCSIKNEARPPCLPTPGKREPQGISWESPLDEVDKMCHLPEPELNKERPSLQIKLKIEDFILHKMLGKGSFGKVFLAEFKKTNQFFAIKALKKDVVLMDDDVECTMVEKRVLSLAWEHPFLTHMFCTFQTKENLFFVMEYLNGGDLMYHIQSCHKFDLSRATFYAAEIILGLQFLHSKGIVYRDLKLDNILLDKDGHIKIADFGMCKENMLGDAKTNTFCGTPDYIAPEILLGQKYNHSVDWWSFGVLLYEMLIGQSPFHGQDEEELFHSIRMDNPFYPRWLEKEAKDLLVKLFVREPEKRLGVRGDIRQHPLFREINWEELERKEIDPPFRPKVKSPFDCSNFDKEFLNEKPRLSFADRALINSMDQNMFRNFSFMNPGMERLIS
Experimental: as §3, §2

[8] = molecular target: PKC-δ (Homo sapiens, UniProt Q05655); test: PKC isoform translocation in A549-tGFP cells; format: cell-based; set-up: host or cells: A549
Chain of PKC-δ (Q05655 whole entry, canonical isoform): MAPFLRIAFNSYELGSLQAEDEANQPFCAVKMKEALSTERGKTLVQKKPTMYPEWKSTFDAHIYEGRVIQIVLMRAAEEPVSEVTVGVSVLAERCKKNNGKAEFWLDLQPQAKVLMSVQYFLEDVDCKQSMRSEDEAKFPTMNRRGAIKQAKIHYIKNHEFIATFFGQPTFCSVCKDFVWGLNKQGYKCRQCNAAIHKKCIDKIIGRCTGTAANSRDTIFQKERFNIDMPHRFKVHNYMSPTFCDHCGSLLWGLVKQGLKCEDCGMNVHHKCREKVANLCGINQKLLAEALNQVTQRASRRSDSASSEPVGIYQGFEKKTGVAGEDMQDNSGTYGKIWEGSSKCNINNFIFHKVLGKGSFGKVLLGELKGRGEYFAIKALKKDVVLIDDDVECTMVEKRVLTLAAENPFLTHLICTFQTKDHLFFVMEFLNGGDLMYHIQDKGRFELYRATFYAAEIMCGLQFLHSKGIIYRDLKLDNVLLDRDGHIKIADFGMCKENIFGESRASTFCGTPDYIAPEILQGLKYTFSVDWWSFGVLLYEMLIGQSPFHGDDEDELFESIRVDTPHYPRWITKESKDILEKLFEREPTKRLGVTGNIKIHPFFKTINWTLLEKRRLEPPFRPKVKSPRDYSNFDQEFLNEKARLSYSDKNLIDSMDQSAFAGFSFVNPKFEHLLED
Experimental: as §3, §2

[9] = test system: PKC δ and ε over α and β; conditions: cited from earlier work
[10] = Free fraction in cell culture media; format: in vitro ADME
[11] = test system: classical and novel PKC isoforms; test: Estimated PKC inhibition in cell culture from Z'-LYTE IC50 and free fraction; format: biochemical; conditions: 25 µM, 34% free in cell culture media
Text: (§4) In this assay, phosphorylation of a synthetic FRET-peptide substrate protects the peptide from cleavage by the development reagent and prevents disruption of the FRET signal.

[12] = molecular target: T1, PKC-β1; test: Z'-LYTE kinase activity assay; format: biochemical; conditions: ATP at Kmapp, 2 μM peptide substrate; read-out: IC50 for classical PKC isoforms, PKC-β1
Text: as §4

[13] = molecular target: T4, PKC-α; test: Z'-LYTE kinase activity assay; format: biochemical; conditions: ATP at Kmapp, 2 μM peptide substrate; read-out: IC50 for classical PKC isoforms, PKC-α
Text: as §4

[14] = molecular target: T2, PKC-β2; test: Z'-LYTE kinase activity assay; format: biochemical; conditions: ATP at Kmapp, 2 μM peptide substrate; read-out: IC50 for classical PKC isoforms, PKC-β2
Text: as §4

[15] = test system: platelets (CD62P+) and CD4+ T cells (CD69+) in whole blood; test: In vitro whole blood platelet and CD4+ T-cell activation assay; format: cell-based, human; conditions: whole blood from healthy donors; platelets to CD4+ T cells
Experimental: We developed a novel human whole blood assay to determine whether other PKC agonists also activate platelets at the same concentrations that are required to activate CD4^+ T cells. Platelet activation was assessed by CD62P (P-selectin), which traffics to the cell surface upon activation and α-granule release. CD4^+ T-cell activation was assessed by CD69 upregulation (Fig 7A).
Whole blood was drawn into sodium citrate tubes using a 21-gauge needle. To prevent potential interference from tissue thromboplastin released during venipuncture, which could affect the accuracy of coagulation testing, the first 2 mL of blood drawn was discarded. PKC agonist molecules were dispensed in a dilution series into 80 μL of blood per well in a flat-bottom 96-well plate and mixed gently. Care was taken not to introduce any mechanical stress-related activation of platelets. […] The remaining 72 μL of blood in the first plate was incubated for 1 additional hour and stained with anti-human CD3 (UCHT1), CD4 (SK3), and CD69 (FN50) (30 minutes in the dark). Red blood cell lysis and fixing was done using BD lyse/fix solution. Stained cells were acquired on BD LSR Fortessa II after washing. […] EC50 values for platelet and CD4 T-cell activation for each agonist was obtained by nonlinear regression curve fit using GraphPad Prism version 9.3.0.

[16] = test system: latent HIV in total CD4+ T cells; test: microbe, parasite or virus in culture; format: cell-based, HIV-1; conditions: 5 μM
Experimental: Peripheral blood mononuclear cells and CD4^+ T cells used for evaluating PKC agonist and inhibitor molecules were isolated from leukopaks of selected participants as described previously. Isolated CD4^+ T cells (5×10^6 cells/well) were added to 24-well tissue culture plates in 2.5 mL of RPMI medium containing 100 nM each of elvitegravir and efavirenz. Cells were stimulated with DMSO (vehicle control) or the indicated concentrations of PKC agonist molecules. Cells were pretreated with PKC isoform inhibitors (Selleck Chemicals) for 1 hour before addition of PKC agonist at indicated concentrations and maintained at 37 °C, 5% CO2 for 3 days. Cell supernatants from each well were analyzed using the Cobas […] system for quantification of HIV-1 RNA using the HIV-1 test v2.0 kit (Roche Diagnostics).

T1 sequence (P05771 whole entry, canonical isoform): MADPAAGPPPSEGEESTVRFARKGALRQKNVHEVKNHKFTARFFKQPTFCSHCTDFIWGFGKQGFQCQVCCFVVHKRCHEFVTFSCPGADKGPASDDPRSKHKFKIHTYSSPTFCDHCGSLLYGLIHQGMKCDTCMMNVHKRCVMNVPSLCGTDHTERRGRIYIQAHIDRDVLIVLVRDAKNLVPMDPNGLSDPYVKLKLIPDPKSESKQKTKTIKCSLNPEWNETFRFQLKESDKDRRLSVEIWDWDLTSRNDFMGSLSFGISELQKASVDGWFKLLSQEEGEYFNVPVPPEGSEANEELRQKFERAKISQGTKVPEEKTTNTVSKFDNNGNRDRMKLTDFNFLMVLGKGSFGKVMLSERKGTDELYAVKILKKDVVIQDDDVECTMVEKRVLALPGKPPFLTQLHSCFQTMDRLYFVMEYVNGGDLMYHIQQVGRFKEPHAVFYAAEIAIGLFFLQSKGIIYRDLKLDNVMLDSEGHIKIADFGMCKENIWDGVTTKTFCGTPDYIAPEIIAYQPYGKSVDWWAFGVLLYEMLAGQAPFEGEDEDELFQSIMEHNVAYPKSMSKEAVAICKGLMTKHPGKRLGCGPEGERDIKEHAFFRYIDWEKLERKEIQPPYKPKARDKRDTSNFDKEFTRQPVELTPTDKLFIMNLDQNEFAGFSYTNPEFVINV

SMILES: CC(C)CC(C/C=C1\CC(CO)(COC(=O)C(C)(C)C)OC1=O)CC(C)C (stereo not drawn) [AJH-863, reference compound]
- EC50 [1]: 1300 nM
- EC50 [2]: 19400 nM
- EC50 [3]: 1060 nM
- EC50 [4]: 505 nM
- EC50 [5]: > 50000 nM
- EC50 [6]: 1890 nM
- EC50 [7]: 1200 nM
- EC50 ([8]; EC50 for PKC-δ translocation): 2320 nM
- potency as PKC agonist [9]: low nanomolar potency
- selectivity for δ and ε over α and β [9]: approximately 10 fold

SMILES: Cn1c2ccccc2c2c3c(c4c5ccccc5n(CCC#N)c4c21)CNC3=O [Gӧ-6976]
- free in cell culture media [10]: 34%
- estimated effect on novel PKC isoforms [11]: without impacting novel PKC isoforms
- estimated inhibition of classical isoform activity [11]: 75%–95%
- IC50 [12]: 469 nM
- IC50 [13]: 101 nM
- IC50 [14]: 182 nM

SMILES: CCCCCC(=O)O[C@H]1C(C)=C[C@]23C(=O)[C@@H](C=C(CO)[C@@H](O)[C@]12O)[C@H]1[C@@H](C[C@H]3C)C1(C)C [Ingenol B, reference compound]
- CD62P EC50/CD69 EC50 ratio Geomean [15]: 1.8

SMILES: CC(C)=C1CC(CO)(COC(=O)c2ccc(C#Cc3ccc(C)cc3)cc2)OC1=O (stereo not drawn) [Comin compound 2]
- EC50 [1]: 966 nM
- EC50 [3]: 6650 nM
- EC50 [4]: 783 nM
- HIV RNA Fold∆ over DMSO, Geomean ([16]; agonist alone): 13 fold
- HIV RNA Fold∆ over DMSO, Geomean ([16]; +5 μM Gö-6850 Pan-PKC Inhibitor): 1.6 fold
- HIV RNA Fold∆ over DMSO, Geomean ([16]; +25 μM Gö-6976 Classical-PKC Inhibitor): 15 fold
- EC50 ([5]; A549-tGFP cells, 60 minutes, read-out: EC50 for PKC-α translocation): > 50000 nM
- EC50 [6]: 1190 nM
- EC50 [7]: 792 nM
- EC50 ([8]; A549-tGFP cells, 60 minutes, read-out: EC50 for PKC-δ translocation): 4040 nM
